US20250361253A1, “STING AGONIST COMPOUNDS” (Sutro Biopharma, Inc., priority 2022, published 2025)

Assays:
hSTING-R232 = biological target: T1, hSTING-R232 (Homo sapiens, UniProt Q86WV6, H232R); assay: ISG reporter induction in 293-Dual hSTING-R232 reporter cells (QUANTI-Blue); type: cell-based; conditions: 293-Dual hSTING-R232 cells, overnight incubation
T1 construct: host or cells: 293-Dual (HEK293-derived) reporter cells
Procedure: (§1) Certain STING compounds of the disclosure were evaluated in an in vitro cell based assay.
(§2) 293-Dual hSTING-R232 and mSTING cells (Invivogen) were seeded at 25,000 cells/well (50 ul) and co-cultured with STING agonists (2× concentration, 50 ul) in clear, half-area, 96-well polystyrene plates. Cells and test samples were prepared in DMEM supplemented with 10% FBS, Glutamax, and PenStrep. After overnight incubation at 37 C in a CO2 incubator, 20 ul of supernatant was added to QUANTI-Blue detection reagent (Invivogen). After one hour incubation at 37 C, plates were read at 640/650 nm on EnVision plate reader (PerkinElmer). OD values were plotted by log(agonist) vs. response, variable slope, four parameter curve fit (Log transform) using GraphPad Prism software to determine EC50 values.

mSTING = biological target: T2, mSTING (Mus musculus, UniProt Q3TBT3); assay: ISG reporter induction in 293-Dual mSTING reporter cells (QUANTI-Blue); type: cell-based; conditions: 293-Dual mSTING cells, overnight incubation
T2 construct: host or cells: 293-Dual (HEK293-derived) reporter cells
T2 sequence (Q3TBT3 1-378): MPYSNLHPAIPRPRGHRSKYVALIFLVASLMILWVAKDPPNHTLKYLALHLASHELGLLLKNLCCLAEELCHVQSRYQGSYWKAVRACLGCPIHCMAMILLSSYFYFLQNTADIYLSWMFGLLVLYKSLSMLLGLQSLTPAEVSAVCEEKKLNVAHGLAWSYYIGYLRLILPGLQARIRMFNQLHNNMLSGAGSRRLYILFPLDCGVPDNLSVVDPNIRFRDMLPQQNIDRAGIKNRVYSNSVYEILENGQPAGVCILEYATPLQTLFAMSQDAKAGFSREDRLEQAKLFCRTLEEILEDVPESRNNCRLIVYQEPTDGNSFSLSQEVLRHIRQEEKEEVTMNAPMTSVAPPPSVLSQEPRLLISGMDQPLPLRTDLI
Procedure: as §1, §2

hSTING WT [1] = biological target: T3, hSTING WT (Homo sapiens, UniProt Q86WV6); assay: Thermal shift assay (DSF); type: binding; parameters: unit not given here; conditions: compound at 3.12 uM
Excerpt: Thermal shift assay experimental methods were followed based on the published methods described in Ramanjulu et al. Nature, 2018, 564, 439.

hSTING WT [2] = biological target: T3, hSTING WT; assay: Surface plasmon resonance assay; type: binding; conditions: read-out: hSTING WT SPR (Kd)
Procedure: Surface plasmon resonance assay experimental methods were followed based on the published methods described in Pan et al., Science, 2020 369, eaba6098. (“A” means EC50≤20 nM).

T1 sequence (Q86WV6 whole entry H232R): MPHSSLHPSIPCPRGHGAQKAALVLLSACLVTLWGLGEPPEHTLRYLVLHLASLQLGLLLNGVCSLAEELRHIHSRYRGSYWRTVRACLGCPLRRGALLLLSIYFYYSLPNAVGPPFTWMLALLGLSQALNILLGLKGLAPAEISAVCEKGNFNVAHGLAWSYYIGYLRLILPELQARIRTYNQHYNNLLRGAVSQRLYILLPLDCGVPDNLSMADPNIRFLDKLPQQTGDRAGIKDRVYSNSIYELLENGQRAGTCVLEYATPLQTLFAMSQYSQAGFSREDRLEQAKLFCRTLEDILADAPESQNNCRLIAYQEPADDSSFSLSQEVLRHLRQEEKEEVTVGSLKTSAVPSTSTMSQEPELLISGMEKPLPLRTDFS
T3 sequence (Q86WV6 155-341 H232R limits assumed): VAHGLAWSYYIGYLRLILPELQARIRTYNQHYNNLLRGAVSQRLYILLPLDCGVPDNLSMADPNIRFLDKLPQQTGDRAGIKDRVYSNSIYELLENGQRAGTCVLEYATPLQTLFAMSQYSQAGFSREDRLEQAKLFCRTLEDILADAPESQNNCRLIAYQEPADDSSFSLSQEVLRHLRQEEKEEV

Structure (SMILES) | EC50 (hSTING-R232) | EC50 (mSTING) | hSTING WT DSF (delta TmD @ 3.12 uM) (hSTING WT [1]) | Kd (hSTING WT [2])
COc1cc2sc(C(=O)CC(C)(C)C(=O)O)cc2c(F)c1OCCCOc1c(OC)cc2sc(C(=O)CP(=O)(OC)OC)cc2c1F [Compound 4, 4-(5-(3-((2-(2-(Dimethoxyphosphoryl)acetyl)-4-fluoro-6-methoxybenzo[b]thiophen-5-yl)oxy)propoxy)-4-fluoro-6-methoxybenzo[b]thiophen-2-yl)-2,2-dimethyl-4-oxobutanoic acid] | > 150 nM | 50 to 150 nM |  | 
COc1cc2sc(C(=O)CC(C)(C)C(=O)O)cc2c(F)c1OCCCOc1ccc2cc(C(=O)CCC(=O)O)ccc2c1 [Compound 13, 4-(5-(3-((6-(3-Carboxypropanoyl)naphthalen-2-yl)oxy)propoxy)-4-fluoro-6-methoxybenzo[b]thiophen-2-yl)-2,2-dimethyl-4-oxobutanoic acid] | 50 to 150 nM | 50 to 150 nM |  | 
COc1cc2nc(C(=O)CCC(=O)O)ccc2c(F)c1OCCCOc1c(OC)cc2sc(C(=O)CC(C)(C)C(=O)O)cc2c1F [Compound 23, 4-(5-(3-((2-(3-Carboxypropanoyl)-5-fluoro-7-methoxyquinolin-6-yl)oxy)propoxy)-4-fluoro-6-methoxybenzo[b]thiophen-2-yl)-2,2-dimethyl-4-oxobutanoic acid] | ≤ 50 nM | ≤ 50 nM |  | 
COc1cc2cc(C(=O)CCC(=O)O)ccc2c(F)c1OCCCOc1c(OC)cc2sc(C(=O)CC(C)(C)C(=O)O)cc2c1F [Compound 16, 4-(5-(3-((6-(3-Carboxypropanoyl)-1-fluoro-3-methoxynaphthalen-2-yl)oxy)propoxy)-4-fluoro-6-methoxybenzo[b]thiophen-2-yl)-2,2-dimethyl-4-oxobutanoic acid] | > 150 nM | > 150 nM |  | 
COc1cc2sc(C(=O)CCC(=O)O)cc2c(F)c1OCCCOc1c(OC)cc2sc(C(=O)CCP(=O)(O)O)cc2c1F [Compound 7, 4-(4-Fluoro-5-(3-((4-fluoro-6-methoxy-2-(3-phosphonopropanoyl)benzo[b]thiophen-5-yl)oxy)propoxy)-6-methoxybenzo[b]thiophen-2-yl)-4-oxobutanoic acid] | ≤ 50 nM | ≤ 50 nM | 20 | ≤ 20 nM
COc1cc2cc(C(=O)CCC(=O)O)ccc2cc1OCCCOc1c(OC)cc2sc(C(=O)CC(C)(C)C(=O)O)cc2c1F [Compound 22] | > 150 nM | > 150 nM |  | 
COc1cc2sc(/C=C/CC(=O)O)cc2c(F)c1OCCCOc1c(OC)cc2sc(C(=O)CC(C)(C)C(=O)O)cc2c1F [Compound 11, (E)-4-(5-(3-((2-(3-carboxy-3-methylbutanoyl)-4-fluoro-6-methoxybenzo[b]thiophen-5-yl)oxy)propoxy)-4-fluoro-6-methoxybenzo[b]thiophen-2-yl)but-3-enoic acid] | ≤ 50 nM | ≤ 50 nM |  | 
COc1cc2sc(C(=O)CC(C)(C)C(=O)O)cc2c(C)c1OCCCOc1c(OC)cc2sc(C(=O)CP(=O)(O)O)cc2c1C [Compound 34] | > 150 nM | > 150 nM |  | 
COc1cc2sc(/C=C/CC(=O)O)cc2c(F)c1OCCCOc1c(OC)cc2sc(/C=C/CC(=O)O)cc2c1F [Compound 33] | > 150 nM | > 150 nM |  | 
COc1cc2sc(/C=C/CC(=O)O)cc2c(F)c1OCCCOc1c(OC)cc2sc(C(=O)CP(=O)(O)O)cc2c1F [Compound 32] | 50 to 150 nM | > 150 nM |  | 
COc1cc2sc(C(=O)CC(C)(C)C(=O)O)cc2c(F)c1OCCCOc1c(OC)cc2sc(C3CC3CC(=O)O)cc2c1F (centres unmarked) [Compound 12, 4-(5-(3-((2-(2-(carboxymethyl)cyclopropyl)-4-fluoro-6-methoxybenzo[b]thiophen-5-yl)oxy)propoxy)-4-fluoro-6-methoxybenzo[b]thiophen-2-yl)-2,2-dimethyl-4-oxobutanoic acid] | > 150 nM | 50 to 150 nM |  | 
COC(=O)C(C)(C)CC(=O)c1cc2c(F)c(OCCCOc3c(OC)cc4sc(C(=O)CP(=O)(OC)OC)cc4c3F)c(OC)cc2s1 [Compound 3, Methyl 4-(5-(3-((2-(2-(dimethoxyphosphoryl)acetyl)-4-fluoro-6-methoxybenzo[b]thiophen-5-yl)oxy)propoxy)-4-fluoro-6-methoxybenzo[b]thiophen-2-yl)-2,2-dimethyl-4-oxobutanoate] | > 150 nM | > 150 nM |  | 
COc1cc2sc(C(=O)CC(C)(C)C(=O)O)cc2c(F)c1OCCCOc1ccc2cc(C(=O)CCC(=O)O)ccc2c1F [Compound 15, 4-(5-(3-((6-(3-Carboxypropanoyl)-1-fluoronaphthalen-2-yl)oxy)propoxy)-4-fluoro-6-methoxybenzo[b]thiophen-2-yl)-2,2-dimethyl-4-oxobutanoic acid] | > 150 nM | > 150 nM |  | 

Continued, values first:

EC50 (hSTING-R232) | EC50 (mSTING) | hSTING WT DSF (delta TmD @ 3.12 uM) (hSTING WT [1]) | Kd (hSTING WT [2]) | Structure (SMILES)
> 150 nM | > 150 nM |  |  | COc1cc2sc(C(=O)CC(C)(C)C(=O)O)cc2c(F)c1OCCCOc1c(OC)cc2sc(C(=O)CC(C)(C)P(=O)(O)O)cc2c1F [Compound 9, 4-(4-Fluoro-5-(3-((4-fluoro-6-methoxy-2-(3-methyl-3-phosphonobutanoyl)benzo[b]thiophen-5-yl)oxy)propoxy)-6-methoxybenzo[b]thiophen-2-yl)-2,2-dimethyl-4-oxobutanoic acid]
50 to 150 nM | 50 to 150 nM | −0.1 |  | COC(=O)C(C)(C)CC(=O)c1cc2c(F)c(OCCCOc3c(OC)cc4sc(C(=O)CP(=O)(O)O)cc4c3F)c(OC)cc2s1 [Compound 5, (2-(4-Fluoro-5-(3-((4-fluoro-6-methoxy-2-(4-methoxy-3,3-dimethyl-4-oxobutanoyl)benzo[b]thiophen-5-yl)oxy)propoxy)-6-methoxybenzo[b]thiophen-2-yl)-2-oxoethyl)phosphonic acid]
≤ 50 nM | ≤ 50 nM |  |  | COc1cc2sc(C(=O)CCC(=O)O)cc2c(F)c1OCCCOc1c(OC)cc2sc(C(=O)CP(=O)(O)O)cc2c1F [Compound 20]
> 150 nM | 50 to 150 nM | 20 | ≤ 20 nM | COc1cc2sc(C(=O)CC(C)(C)C(=O)O)cc2c(F)c1OCCCOc1c(OC)cc2sc(C(=O)CS(=O)(=O)O)cc2c1F [Compound 1, 4-(4-Fluoro-5-(3-((4-fluoro-6-methoxy-2-(2-sulfoacetyl)benzo[b]thiophen-5-yl)oxy)propoxy)-6-methoxybenzo[b]thiophen-2-yl)-2,2-dimethyl-4-oxobutanoic acid]
> 150 nM | > 150 nM |  |  | COc1cc2sc(C(=O)CC(C)(C)C(=O)O)cc2c(F)c1OCCCOc1c(OC)cc2sc(C(=O)CC(C)(C)C(=O)NS(=O)(=O)CCN)cc2c1F [Compound 17, 4-(5-(3-((2-(4-((2-Aminoethyl)sulfonamido)-3,3-dimethyl-4-oxobutanoyl)-4-fluoro-6-methoxybenzo[b]thiophen-5-yl)oxy)propoxy)-4-fluoro-6-methoxybenzo[b]thiophen-2-yl)-2,2-dimethyl-4-oxobutanoic acid]
> 150 nM | > 150 nM |  |  | COc1cc2sc(CCP(=O)(O)O)cc2c(F)c1OCCCOc1c(OC)cc2sc(C(=O)CC(C)(C)C(=O)O)cc2c1F [Compound 19]
> 150 nM | > 150 nM |  |  | COC(=O)C(C)(C)CC(=O)c1cc2c(F)c(OCCCOc3c(OC)cc4sc(C(=O)CC(C)(C)P(=O)(O)O)cc4c3F)c(OC)cc2s1 [Compound 10]
> 150 nM | > 150 nM |  |  | COc1cc2sc(C(=O)CC(C)(C)C(=O)O)cc2c(F)c1OCCCOc1c(OC)cc2sc(C(=O)CC(C)(C)C(=O)NCCN)cc2c1F [Compound 18]
> 150 nM | ≤ 50 nM |  |  | COc1cc2sc(C(=O)CCP(=O)(O)O)cc2c(F)c1OCCCOc1c(OC)cc2sc(C(=O)CC(C)(C)C(=O)O)cc2c1F [Compound 21]
> 150 nM | ≤ 50 nM |  |  | COc1cc2sc(C(=O)CCS(=O)(=O)O)cc2c(F)c1OCCCOc1c(OC)cc2sc(C(=O)CC(C)(C)C(=O)O)cc2c1F [Compound 14, 4-(4-fluoro-5-(3-((4-fluoro-6-methoxy-2-(3-sulfopropanoyl)benzo[b]thiophen-5-yl)oxy)propoxy)-6-methoxybenzo[b]thiophen-2-yl)-2,2-dimethyl-4-oxobutanoic acid]
> 150 nM | 50 to 150 nM |  |  | COC(=O)C(C)(C)CC(=O)c1cc2c(F)c(OCCCOc3c(OC)cc4sc(C(=O)CS(=O)(=O)O)cc4c3F)c(OC)cc2s1 [Compound 2, 2-(4-Fluoro-5-(3-((4-fluoro-6-methoxy-2-(4-methoxy-3,3-dimethyl-4-oxobutanoyl)benzo[b]thiophen-5-yl)oxy)propoxy)-6-methoxybenzo[b]thiophen-2-yl)-2-oxoethane-1-sulfonic acid]
